Where two headings read alike, the source gives them in different places.
Tests used:
[1] = tested on: MV4:11 (MLL-AF4 MLL) cells; experiment: Cell viability assay (CellTiter-Glo), 12 days; format: cell-based; conditions: MV4;11 cells, 12 day, read-out: CTG_MV4, 11 12 DAY_EC50
Description: The assays were conducted over 12 days and the cells being split on days 4 and 8. […] Blank wells received cell culture medium. Plates were incubated for 4 days at 37° C. with 5% CO2. On days 4 and day 8 the cells were split and incubated for a further 4 days whilst an aliquot of cells were taken for the CTG readout. For the cell splitting, 270 nL of compounds or DMSO was added to a new 96 well cell culture plate to which 90 μL of medium plus 10 μL of cells from the original assay plate (after mixing) or 100 μL of medium (Blank wells) was added. This was repeated on day 8.
Cell viability was assessed using the CellTiter-Glo® homogeneous luminescent assay kit (Promega, G9243), according to the manufacturer's instructions. This quantifies ATP, which indicates the presence of metabolically active cells. […] The resulting data were analyzed as follows:
where vehicle are cells treated with 0.3% DMSO, Blank is culture medium. IC50 determinations were calculated by fitting the curve using XLfit (v5.3.1.3): Y=Bottom+(Top−Bottom)/(1+10^((LogIC50−X)*HillSlope)).

[2] = molecular target: ENL YEATS domain (Homo sapiens (Human), UniProt Q03111); experiment: TR-FRET ENL Screening Assay; conditions: 6xHIS ENL YEATS domain binding to H3K9cr peptide
Sequence of ENL YEATS domain (Q03111 1-138): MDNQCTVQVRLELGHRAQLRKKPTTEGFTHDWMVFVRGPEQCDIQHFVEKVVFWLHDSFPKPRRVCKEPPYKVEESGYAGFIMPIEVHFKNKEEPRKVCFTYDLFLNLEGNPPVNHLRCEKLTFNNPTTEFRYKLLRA
Description: Compounds of the invention were tested in a TR-FRET ENL Screening Assay. TR-FRET (time-resolved fluorescence energy transfer) can be used to quantify ENL YEATS domain binding to a crotonylated histone peptide (H3K9cr, aa1-20). Streptavidin-Europium (Eu) chelate binds the biotinylated peptide, while Anti-6×HIS ULight™ binds 6×HIS-ENL. When Eu chelate is excited at 320 nm, fluorescence resonance energy transfer (FRET) occurs if Eu and ULight are made proximal by ENL binding to the acyl-peptide.
Low control (LC) wells received 5 μL of assay buffer instead of ENL protein. […] The response at each compound concentration minus the LC value was converted to percent inhibition of the vehicle control group response (HC-LC).

IC50 [2]	EC50 ([1]; Homo sapiens, 288 h)	Compound	EC50 [1]
47 nM	172 nM	Cc1nn(C)c2ccc(C(=O)Nc3cc4[nH]c([C@H]5CCCCN5C)cc4cn3)cc12 [Example 87]	
57 nM	91 nM	Cc1n[nH]c2ccc(C(=O)Nc3cc4[nH]c([C@H]5CCCN5C)cc4cn3)cc12 [Example 31]	
64 nM	229 nM	Cc1nccc2ccc(C(=O)Nc3cc4[nH]c([C@H]5CCCN5C)cc4cn3)cc12 [Example 83]	
47 nM	69 nM	Cc1nccc2ccc(C(=O)Nc3cc4[nH]c([C@H]5CCCCN5C)cc4cn3)cc12 [Example 88]	
61 nM	257 nM	CN1CCC[C@@H]1c1cc2cnc(NC(=O)c3ccc4[nH]nc(F)c4c3)cc2[nH]1 [Example 46]	
18 nM	688 nM	CN1CCC[C@@H]1c1cc2cnc(NC(=O)c3ccc4c(F)nn(C)c4c3)cc2[nH]1 [Example 55]	
34 nM	88 nM	Cc1nn(C)c2cc(C(=O)Nc3cc4[nH]c([C@H]5CCCN5C)cc4cn3)ccc12 [Example 40]	
76 nM	146 nM	Cc1nnc(C)c2cc(C(=O)Nc3cc4[nH]c([C@H]5CCCCN5C)cc4cn3)ccc12 [Example 93]	
110 nM	189 nM	Cc1ncn2ccc(C(=O)Nc3cc4[nH]c([C@H]5CCCN5C)cc4cn3)cc12 [Example 70]	
318 nM	621 nM	COc1c(C(=O)Nc2cc3[nH]c([C@H]4CCCN4C)cc3cn2)ccc2c(C)n[nH]c12 [Example 54]	
51 nM	39 nM	Cc1noc2cc(C(=O)Nc3cc4[nH]c([C@H]5CCCN5C)cc4cn3)ccc12 [Example 30]	

Further lines, the molecule ahead of its results:

Compound	IC50 [2]	EC50 ([1]; Homo sapiens, 288 h)	EC50 [1]
CN1CCC[C@@H]1c1cc2cnc(NC(=O)c3ccn4c(C5COC5)ncc4c3)cc2[nH]1 [Example 6, (R)—N-(2-(1-methylpyrrolidin-2-yl)-1H-pyrrolo[3,2-c]pyridin-6-yl)-3-(oxetan-3-yl) imidazo[1,5-a]pyridine-7-carboxamide]	106 nM		33 nM
CN1CCCC[C@@H]1c1cc2cnc(NC(=O)c3ccc4c(c3)N(C)S(=O)(=O)C4)cc2[nH]1 [Example 96]	250 nM	319 nM	
Cc1nc(C)n2cc(C(=O)Nc3cc4[nH]c([C@H]5CCCCN5C)cc4cn3)ccc12 [Example 90]	51 nM	144 nM	
CN1CCC[C@@H]1c1cc2cnc(NC(=O)c3ccc4c(C(F)F)nn(C)c4c3)cc2[nH]1 [Example 78, (R)-3-(difluoromethyl)-1-methyl-N-(2-(1-methylpyrrolidin-2-yl)-1H-pyrrolo[3,2-c]pyridin-6-yl)-1H-indazole-6-carboxamide]	14 nM	167 nM	
CN1CCC[C@@H]1c1cc2cnc(NC(=O)c3ccc4c(N)nccc4c3)cc2[nH]1 [Example 41]	14 nM	72 nM	
COCCNc1nn(C)c2cc(C(=O)Nc3cc4[nH]c([C@H]5CCCN5C)cc4cn3)ccc12 [Example 51]	100 nM	1200 nM	
CN1CCC[C@@H]1c1cc2cnc(NC(=O)c3ccc4c(cnn4-c4ccncc4)c3)cc2[nH]1 [Example 84]	31 nM	134 nM	
CN1C(=O)Cc2ccc(C(=O)Nc3cc4[nH]c([C@H]5CCCCN5C)cc4cn3)cc21 [Example 94]	220 nM	368 nM	
Cc1nnn2cc(C(=O)Nc3cc4[nH]c([C@H]5CCCN5C)cc4cn3)ccc12 [Example 64]	91 nM	773 nM	
CC(O)c1ncc2cc(C(=O)Nc3cc4[nH]c([C@H]5CCCN5C)cc4cn3)ccn12 (stereo partly drawn) [Example 4, 3-(1-hydroxyethyl)-N-(2-((R)-1-methylpyrrolidin-2-yl)-1H-pyrrolo[3,2-c]pyridin-6-yl) imidazo[1,5-a]pyridine-7-carboxamide]	203 nM		4370 nM
CN1CCCC[C@@H]1c1cc2cnc(NC(=O)c3ccc4cnn(C)c4c3)cc2[nH]1 [Example 8, 1-methyl-N-[2-[(2R)-1-methylpiperidin-2-yl]-1H-pyrrolo[3,2-c]pyridin-6-yl]indazole-6-carboxamide]	100 nM	123 nM	
Cc1ncc2c(F)c(C(=O)Nc3cnc4cc([C@H]5CCCN5C)[nH]c4c3)ccn12 [Example 75]	126 nM	2410 nM	
Cc1ncn2cc(C(=O)Nc3cc4[nH]c([C@H]5CCCN5C)cc4cn3)ccc12 [Example 32]	58 nM	12200 nM	
Cc1noc2cc(C(=O)Nc3ccc4nc([C@H]5CCCN5C)[nH]c4c3)c(F)cc12 [Example 14]	178 nM	4640 nM	
Cc1cnn2ccc(C(=O)Nc3cc4[nH]c([C@H]5CCCN5C)cc4cn3)cc12 [Example 36]	43 nM	853 nM	
Cc1ccc2cc(C(=O)Nc3cc4[nH]c([C@H]5CCCN5C)cc4cn3)ccc2n1 [Example 66]	29 nM	1630 nM	
CN1CCC[C@@H]1c1nc2cc(NC(=O)c3cc4cnn(-c5ccncc5)c4cc3F)ccc2[nH]1 [Example 7, (R)-6-fluoro-N-(2-(1-methylpyrrolidin-2-yl)-1H-benzo[d]imidazol-5-yl)-1-(pyridin-4-yl)-1H-indazole-5-carboxamide]	142 nM	101 nM	
Cc1nn(C)c(=O)c2cc(C(=O)Nc3cc4[nH]c([C@H]5CCCCN5C)cc4cn3)ccc12 [Example 103, (R)-1,3-dimethyl-N-(2-(1-methylpiperidin-2-yl)-1H-pyrrolo[3,2-c]pyridin-6-yl)-4-oxo-3,4-dihydrophthalazine-6-carboxamide]	148 nM	292 nM	
CN1CCC[C@@H]1c1cc2cnc(NC(=O)c3ccn4c(C(F)(F)F)ncc4c3)cc2[nH]1 [Example 35]	114 nM	269 nM	

— patent publication US20250136592A1, “C-LINKED INHIBITORS OF ENL/AF9 YEATS” (Bridge Medicines, priority 2021, published 2025)
